Data published in patent US20220047475A1, “COSMETIC USE OF A SHORT CHAIN FATTY ACID (SCFA) FOR PREVENTING AND/OR TREATING DRY SKIN AND/OR AGED SKIN” (L'OREAL, priority 2018, published 2022).

What was measured:
sebocytes [1] = test: Quantification of secreted triglycerides (TGs) in sebocyte supernatants; format: cell-based; conditions: for % of excreted TGs (compared to control) / FC (compared to control) of excreted TGs: 5 mmol.L^−1, 24 h
Experimental: Cell culture. Vials containing 3T3 mitomycine treated cells stored in 20% DMSO (Dimethylsulf oxide, Sigma Ref. D2650) in liquid nitrogen have been thawed in a water bath at 37° C. and directly washed with prewarmed G7F culture media (Table 1). 3T3m cells were plated at 40.10^3 cells·cm^2 in a 175 cm^2 flask (Thermoscientific Ref. 159910) and incubated 2 hours at 37° C., 5% CO2. Sebocytes were obtained from primary cell line and stored in 10% DMSO in liquid nitrogen. Vials containing sebocytes were thawed in a water bath at 37° C. and directly washed with prewarmed G7F culture media. Sebocytes were plated at 2600 cells·cm^2 in a 175 cm^2 flask containing attached 3T3m cells and incubated (37° C., 5% CO2) to reach 70-80% confluence. After 5 days, cells were harvested using trypsin (Gibco Ref. 25300) and transferred in 96 well plates (10×10^3 cells per well, Greiner Bio-one Ref. 655956) and incubated (37° C., 5% CO2).
Cell treatment. After 24 hours, cell media was replaced by modified cell media (G7F w/o hydrocortisone and w/o antibiotic-antimycotic) supplemented with: modified cell media (control), sodium acetate (CH3COONa, Sigma Ref. 32319), sodium propionate (CH3CH2COONa, Sigma Ref. P1880), sodium butyrate (CH3(CH2)2COONa Sigma Ref. 303410), valeric acid (CH3(CH2)3COOH, Sigma Ref. 75054). For valeric acid, the pH in modified cell media was neutralized with NaOH (Sodium hydroxide, Sigma 283060). Palmitic acid (C16:0, Cayman Ref. 10006627) and linoleic acid (C18:2 cis 9.12, Sigma Ref. L1376) were both dissolved in pure ethanol (Merck Ref. 1.00983) for a final concentration per well of 60 μmar′. For these treatments, modified cell media supplemented with pure ethanol was used as controls. Supernatants (25%) sampled in exponential and stationary phases were neutralized with NaOH and were controlled with modified cell media supplemented at 25% with pure bacterial culture media. All conditions were repeated 8 times (n=8) for SOFA experiments and 24 times (n=24) for supernatants assays. […]
Triglycerides quantification. Assays have been realized using Triglycerides Assays Kit—Quantification (Abcam, ref. Ab65336) following manufacturer's instructions. Each supernatant of the 8 replicates have been sampled (50 μl) and analyzed following the colorimetric detection method of the kit (OD 570 nm) using a plate reader Infinite 200PRO (Tecan).
Holocrine secretion is the final step of sebogenic process wherein the mature cells burst to release the lipid contents. Promotion of holocrine secretion by SOFA was based on observations and interpretations of a lower number of cells in association with an enlargement of nuclear area.

sebocytes [2] = test: High content screening (HCS) imaging of sebocytes: lipid droplets (BODIPY) and nuclei (Hoechst); format: cell-based; conditions: for Nuclear count / Size of nucleus: 5 mmol.L^−1, mean ± SD, holocrine secretion
Experimental: Cell culture. […] D2650) in liquid nitrogen have been thawed in a water bath at 37° C. and directly washed with prewarmed […] culture media (Table 1). 3T3m cells were plated at 40.10^3 cells·cm^2 in a 175 cm^2 flask (Thermoscientific Ref. 159910) and incubated 2 hours at 37° C., 5% CO2. […] Vials containing sebocytes were thawed in a water bath at 37° C. and directly washed with prewarmed […] culture media. Sebocytes were plated at 2600 cells·cm^2 in a 175 cm^2 flask containing attached 3T3m cells and incubated (37° C., 5% CO2) to reach 70-80% confluence. After 5 days, cells were harvested using trypsin (Gibco Ref. 25300) and transferred in 96 well plates (10×10^3 cells per well, Greiner Bio-one Ref. 655956) and incubated (37° C., 5% CO2). Cell treatment. […] For valeric acid, the pH in modified cell media was neutralized with NaOH (Sodium hydroxide, Sigma 283060). […]) were both dissolved in pure ethanol (Merck Ref. 1.00983) for a final concentration per well of 60 μmar'. For these treatments, modified cell media supplemented with pure ethanol was used as controls. Supernatants (25%) sampled in exponential and stationary phases were neutralized with NaOH and were controlled with modified cell media supplemented at 25% with pure bacterial culture media. All conditions were repeated 8 times (n=8) for SOFA experiments and 24 times (n=24) for supernatants assays. Microplates were incubated 48 hours (37° C., 5% CO2) and directly sampled and/or stained and analyzed. Cell staining. […] Lipid droplets were stained with BODIPY (Invitrogen Ref. […]) diluted in DPBS solution supplemented with delipidated BSA (Bovin Serum Albumin, Sigma Ref. A7906). Nuclei were stained with Hoechst (Invitrogen, Ref. H3570) diluted in DPBS solution. High content imaging, images analysis and statistics. […] Images were analyzed using the MetaXpress image based module Transfluor (Molecular Devices). Results were exported into GraphPad Prism (version 7.01) to determine statistical significance using One-way ANOVA and expressed on bar graph as mean±SD or on box plot±min and max. *: […] Sebocytes were seeded in 96 well plates, followed by treatment with SOFA and/or LCFAs with at least 8 replicate wells (1 column) for each condition.

[3] = sebocytes, 2.5, 5, 10 and 15 mmol·l^−1

Structure (SMILES): CC(=O)[O-].[Na+] [Acetate, sodium acetate, reference compound]
- % of excreted TGs (compared to control) (sebocytes [1]): −10% =
- FC (compared to control) of excreted TGs (sebocytes [1]): FC = 0.90, =
- de novo lipid induction compared to the control (sebocytes [2]; sebocytes, 5 mmol.L^−1): significant
- Nuclear count (sebocytes [2]; sebocytes): 18574 ± 2148 =
- Size of nucleus (sebocytes [2]; sebocytes): 215 ± 5 =
- Nuclear count (sebocytes [2]; sebocytes, listed as acetate): no effect
- Size of nucleus (sebocytes [2]; sebocytes, listed as acetate): no effect

Structure (SMILES): CCC(=O)[O-].[Na+] [Proprionate, sodium propionate]
- % of excreted TGs (compared to control) (sebocytes [1]; listed as P5): +20%
- FC (compared to control) of excreted TGs (sebocytes [1]; listed as P5): ~1.2
- nuclear count per well (sebocytes [2]; [3]): decrease in the nuclear count per well
- size of LDs compared to controls (sebocytes [2]; [3]): LDs increased in size as the concentration of propionate increased
- number of LDs per cell (sebocytes [2]; sebocytes, pure propionate 5 mmol·l^−1): about 12 LDs/cell

Structure (SMILES): CCCC(=O)[O-].[Na+] [butyrate, sodium butyrate]
- FC of TGs excreted (sebocytes [1]; 15 mmol·l−1, 24 h): FC of TGs in B15>FC of TGs in B5
- nuclear count per well (sebocytes [2]; [3]): decrease in the nuclear count per well

Structure (SMILES): CCCCC(=O)O [valerate, valeric acid]
- % of TGs excreted (sebocytes [1]; 15 mmol·l−1, 24 h): +100%
- FC of TGs excreted (sebocytes [1]; 15 mmol·l−1, 24 h): ~2
- nuclear count per well (sebocytes [2]; [3]): decrease in the nuclear count per well
